Experimental findings from patent publication US20160272645A1, “Heterocyclic Compounds and Methods of Use” (MEDIVATION TECHNOLOGIES, INC., priority 2013, published 2016) are described below.

For orientation: IC50 means the midpoint of a concentration-inhibition curve.

For one experiment, the target named is T1, PI3Kα (Homo sapiens, UniProt P42336).
T1 construct: purchased Reaction Biology Corporation
The experiment in a line: PI3K isoform profiling, PI3Kα (PI3Kδ protocol). It counts as biochemical. The following applies: for IC50: 10 dose IC50; for inhibition at 0.3 µM: compound 0.3 μM, read-out: PI3Kα @ 0.3 μM (% Inh). The text has this:
PI3Kδ assay: The PIP3 product is detected by displacement of biotin-PIP3 from an energy transfer complex consisting of Europium labeled anti-GST monoclonal antibody, a GST-tagged pleckstrin homology (PH) domain, biotinylated PIP3 and Streptavidin-Allophycocyanin (APC). Excitation of Europium in the complex results in an energy transfer to the APC and a fluorescent emission at 665 nm. The PIP3 product formed by PI3-Kinase (h) activity displaces biotin-PIP3 from the complex resulting in a loss of energy transfer and thus a decrease in signal. This is a 3-step reaction: First, the kinase reaction with PIP2 substrate is carried out in the presence of ATP (10 μM), and the reaction is quenched with stop Solution, and then finally detect by adding Detection Mixture followed by incubation (10 min). Reaction procedure: 1) Prepare substrate in freshly prepared Reaction Buffer. 2) Deliver kinase into the substrate solution and gently mix. 3) Deliver compounds in 100% DMSO (1 μM) into the kinase reaction mixture by Acoustic technology (Echo550; nanoliter range), incubate for 10 min at RT. 4) Deliver ATP into the reaction mixture to initiate the reaction. 5) Incubate for 30 min at 30° C. 6) Quench the reaction with Stop Solution. 7) Add Detection Mixture, and incubate for overnight. 8) Measure HTRF: Ex=320 nm, ratio of Em=615 nm and Em=665 nm. The emission ratio is converted into μM PIP3 production based on PIP3 standard curves. The nonlinear regression to obtain the standard curve and IC50 values are performed using Graphpad Prism software. Assay Buffer: HEPES 50 mM (pH7.0), NaN3 0.02%, BSA 0.01%, Orthovanadate 0.1 mM, 1% DMSO. Detection buffer: HEPES 10 mM (pH7.0), BSA 0.02%, KF 0.16 M, EDTA 4 mM. Substrate: 10 μM PIP2 substrate (PI(4,5)P2).
Compounds of the invention were profiled in a 10 dose IC50 panel against PI3Kα, PI3Kβ, and PI3Kγ kinases, provided by Reaction Biology Corporation, applied to the PI3Kδ protocol provided in Example B1.

For the next experiment, the target named is T2, BMX/ETK (Homo sapiens, UniProt P51813).
T2 construct: purchased Reaction Biology Corporation
T2 sequence (P51813 1-675): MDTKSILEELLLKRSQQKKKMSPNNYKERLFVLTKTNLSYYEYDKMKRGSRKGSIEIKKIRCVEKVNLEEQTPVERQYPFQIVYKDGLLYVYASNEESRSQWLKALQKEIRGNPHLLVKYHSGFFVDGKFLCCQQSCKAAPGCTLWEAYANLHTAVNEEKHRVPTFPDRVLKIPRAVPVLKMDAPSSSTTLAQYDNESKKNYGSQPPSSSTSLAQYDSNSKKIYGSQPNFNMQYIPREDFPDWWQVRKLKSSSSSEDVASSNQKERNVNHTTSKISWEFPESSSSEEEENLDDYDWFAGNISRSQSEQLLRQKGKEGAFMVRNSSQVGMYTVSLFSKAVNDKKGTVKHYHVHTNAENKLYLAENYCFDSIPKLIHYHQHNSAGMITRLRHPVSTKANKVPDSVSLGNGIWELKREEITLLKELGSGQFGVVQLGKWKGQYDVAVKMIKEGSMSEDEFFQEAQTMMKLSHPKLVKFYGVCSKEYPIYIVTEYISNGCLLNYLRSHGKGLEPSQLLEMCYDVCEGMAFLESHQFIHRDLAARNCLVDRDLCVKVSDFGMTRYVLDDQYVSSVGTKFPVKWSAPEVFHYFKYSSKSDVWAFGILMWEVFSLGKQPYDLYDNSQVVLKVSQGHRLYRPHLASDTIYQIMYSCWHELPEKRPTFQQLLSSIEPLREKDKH
The experiment in a line: BMX/ETK kinase profiling (BTK protocol). The class given is biochemical. The following applies: compound 0.3 μM; read-out: BMX/ETK @ 0.3 μM (% Inh). The protocol:
BTK assay: In vitro profiling protein kinases was performed using the “HotSpot” assay platform. Briefly, specific kinase/substrate pairs along with required cofactors were prepared in reaction buffer. Compounds were prepared as 10 mM stock solutions in DMSO. Compounds were delivered into the reaction, followed 15-20 minutes later by addition of a mixture of ATP (Sigma, St. Louis Mo.) and ^33P ATP (Perkin Elmer, Waltham Mass.) to a final concentration of 10 μM. Reactions were carried out at RT for 120 min, followed by spotting of the reactions onto P81 ion exchange filter paper (Whatman Inc., Piscataway, N.J.). Unbound phosphate was removed by extensive washing of filters in 0.75% Phosphoric acid. […] ICso values and curve fits were obtained using Prism (GraphPad Software). Buffer Conditions: 20 mM Hepes (pH 7.5), 10 mM MgCl2, 1 mM EGTA, 0.02% Brij35, 0.02 mg/mL BSA, 0.1 mM Na3VO4, 2 mM DTT, 1% DMSO.
Compounds of the invention were profiled in a 10 dose IC50 panel against BMX/ETK, ITK and TEC kinases, provided by Reaction Biology Corporation, applied to the BTK protocol provided in Example B1.

T1 sequence (P42336 whole entry): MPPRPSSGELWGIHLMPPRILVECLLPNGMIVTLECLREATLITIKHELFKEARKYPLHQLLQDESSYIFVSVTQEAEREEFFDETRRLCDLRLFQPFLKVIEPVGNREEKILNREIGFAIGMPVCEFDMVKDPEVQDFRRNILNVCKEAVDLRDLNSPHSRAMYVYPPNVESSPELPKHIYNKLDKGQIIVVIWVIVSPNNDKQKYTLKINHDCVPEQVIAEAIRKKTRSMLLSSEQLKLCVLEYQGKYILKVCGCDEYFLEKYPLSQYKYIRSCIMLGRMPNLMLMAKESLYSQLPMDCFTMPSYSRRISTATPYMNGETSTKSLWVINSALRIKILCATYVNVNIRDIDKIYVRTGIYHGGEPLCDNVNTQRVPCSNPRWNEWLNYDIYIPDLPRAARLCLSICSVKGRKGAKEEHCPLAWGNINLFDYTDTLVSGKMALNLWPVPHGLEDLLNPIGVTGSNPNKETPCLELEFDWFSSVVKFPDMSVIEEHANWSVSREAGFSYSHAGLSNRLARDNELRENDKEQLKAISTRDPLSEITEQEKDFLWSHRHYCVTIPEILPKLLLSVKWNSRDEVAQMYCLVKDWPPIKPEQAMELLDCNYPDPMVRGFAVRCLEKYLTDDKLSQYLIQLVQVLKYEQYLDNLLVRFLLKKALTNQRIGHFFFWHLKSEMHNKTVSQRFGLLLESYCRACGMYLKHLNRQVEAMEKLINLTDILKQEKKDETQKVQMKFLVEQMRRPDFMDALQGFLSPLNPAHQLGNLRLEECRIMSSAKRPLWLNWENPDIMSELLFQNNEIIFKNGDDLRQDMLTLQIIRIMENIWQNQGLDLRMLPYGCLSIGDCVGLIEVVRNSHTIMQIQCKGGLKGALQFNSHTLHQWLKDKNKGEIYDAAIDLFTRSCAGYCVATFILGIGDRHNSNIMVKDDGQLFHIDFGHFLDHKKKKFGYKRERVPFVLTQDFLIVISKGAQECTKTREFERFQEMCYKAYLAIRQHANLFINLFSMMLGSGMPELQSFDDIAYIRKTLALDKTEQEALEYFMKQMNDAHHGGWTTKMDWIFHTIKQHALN
T1 sequence (P27986 whole entry partner): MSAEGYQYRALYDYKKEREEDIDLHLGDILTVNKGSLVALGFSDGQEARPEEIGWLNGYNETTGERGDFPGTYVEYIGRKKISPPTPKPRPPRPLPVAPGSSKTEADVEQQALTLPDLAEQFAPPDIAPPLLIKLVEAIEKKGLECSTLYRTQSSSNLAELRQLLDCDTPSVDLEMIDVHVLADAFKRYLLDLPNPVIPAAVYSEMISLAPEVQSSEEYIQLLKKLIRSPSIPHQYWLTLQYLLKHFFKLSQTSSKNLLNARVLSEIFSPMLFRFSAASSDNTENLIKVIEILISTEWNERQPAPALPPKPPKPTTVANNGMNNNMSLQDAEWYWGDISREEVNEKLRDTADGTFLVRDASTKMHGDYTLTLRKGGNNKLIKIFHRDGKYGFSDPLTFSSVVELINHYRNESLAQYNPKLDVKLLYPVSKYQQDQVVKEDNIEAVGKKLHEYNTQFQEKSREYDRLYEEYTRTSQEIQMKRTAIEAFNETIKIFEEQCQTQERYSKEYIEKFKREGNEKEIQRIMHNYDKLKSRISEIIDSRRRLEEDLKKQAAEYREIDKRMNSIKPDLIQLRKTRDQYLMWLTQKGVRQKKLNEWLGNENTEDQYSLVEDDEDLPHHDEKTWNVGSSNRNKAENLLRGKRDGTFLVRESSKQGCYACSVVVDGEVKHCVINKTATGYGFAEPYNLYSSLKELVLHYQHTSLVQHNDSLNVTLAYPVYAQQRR

Turning to `C=CC(=O)N(CCn1nc(-c2cc(O)cc(F)c2)c2c(N)ncnc21)Cc1ccccc1` [Compound 5, N-(2-(4-amino-3-(3-fluoro-5-hydroxyphenyl)-1H-pyrazolo[3,4-d]pyrimidin-1-yl)ethyl)-N-benzylacrylamide], on PI3Kα, the IC50 turned out to be 3320 nM and the inhibition at 0.3 µM worked out at 26.4%. Besides, the inhibition at 0.3 µM on BMX/ETK amounted to 92.5%.

For `C=CC(=O)N(CCn1nc(-c2cc(O)cc(F)c2)c2c(N)ncnc21)Cc1ccc(Cl)cc1` [Compound 12, N-{2-[4-amino-3-(3-fluoro-5-hydroxyphenyl)-1H-pyrazolo[3,4-d]pyrimidin-1-yl]ethyl}-N-[(4-chlorophenyl)methyl]prop-2-enamide], the IC50 at PI3Kα came to 869 nM. In addition, on BMX/ETK, the inhibition at 0.3 µM is 94.2%.

`C=CC(=O)N(CCn1nc(-c2cc(O)c(F)c(F)c2)c2c(N)ncnc21)Cc1ccc(Cl)cc1` [Compound 16, N-{2-[4-amino-3-(3,4-difluoro-5-hydroxyphenyl)-1H-pyrazolo[3,4-d]pyrimidin-1-yl]ethyl}-N-[(4-chlorophenyl)methyl]prop-2-enamide] came in with an IC50 on PI3Kα of 290 nM. The inhibition at 0.3 µM at BMX/ETK amounted to 97.2%.

For `C=CC(=O)N(CCn1nc(-c2cc(O)cc(F)c2)c2c(N)ncnc21)Cc1ccccc1F` [Compound 11, N-[2-[4-amino-3-(3-fluoro-5-hydroxy-phenyl)pyrazolo[3,4-d]pyrimidin-1-yl]ethyl]-N-[(2-fluorophenyl)methyl]prop-2-enamide], inhibition at PI3Kα was half-maximal at 3220 nM (IC50). The inhibition at 0.3 µM on BMX/ETK amounted to 93.5%.

In the case of `C=CC(=O)N(CCn1nc(-c2cc(O)cc(F)c2)c2c(N)ncnc21)Cc1ccc(F)cc1` [Compound 10, N-{2-[4-amino-3-(3-fluoro-5-hydroxyphenyl)-1H-pyrazolo [3,4-d]pyrimidin-1-yl]ethyl}-N-[(4-fluorophenyl)methyl]prop-2-enamide], on PI3Kα, half-maximal inhibition (IC50) was put at 504 nM. Further, the inhibition at 0.3 µM on BMX/ETK stood at 93%.

`Nc1ncnc2c1c(-c1cc(O)cc(F)c1)nn2CCNc1ccccc1` [Compound 1, 3-(4-amino-1-(2-(phenylamino)ethyl)-1H-pyrazolo [3,4-d]pyrimidin-3-yl)-5-fluorophenol]: the inhibition at 0.3 µM stood at 50.5% at PI3Kα and 43.5% on BMX/ETK.

At PI3Kα, `C=CC(=O)N(CCn1nc(-c2cc(O)cc(F)c2)c2c(N)ncnc21)c1ccccc1` [Compound 2, N-(2-(4-amino-3-(3-fluoro-5-hydroxyphenyl)-1H-pyrazolo[3,4-d]pyrimidin-1-yl)ethyl)-N-phenylacrylamide] displayed an IC50 of 4210 nM. Further, the inhibition at 0.3 µM turned out to be 20.1% on PI3Kα and 98.5% on BMX/ETK.
